Test results as given in patent US20040018500A1, “Methods and systems for analyzing complex biological systems” (priority 2001, published 2004).

Test system: Saccharomyces cerevisiae wild type strain BY4743
Assay: AF1 metabolite analysis (GC-MS, LC-MS) of yeast treated with antifungal drugs
Format: cell-based
Details: for # Compounds perturbed: yeast, 2×MIC, two hours

C[C@@H]1[C@H](O)[C@@H](C)/C=C/C=C/C=C/C=C/C=C/C=C/C=C/[C@H](O[C@@H]2O[C@H](C)[C@@H](O)[C@H](N)[C@@H]2O)C[C@@H]2O[C@](O)(C[C@@H](O)C[C@@H](O)[C@H](O)CC[C@@H](O)C[C@@H](O)CC(=O)O[C@H]1C)C[C@H](O)[C@H]2C(=O)O [Amphoteracin B]
Fold Change of TMS mevalonic acid lactone (GC): −0.9767
Fold Change of alanine (GC): −0.7773
Fold Change of asparagine (GC): −1
Fold Change of aspartic acid (GC): −0.9743
Fold Change of campesterol (GC): 0
Fold Change of desmosterol (GC): 0
Fold Change of disaccaride1 (GC): −1
Fold Change of disaccaride2 (GC): −0.9977
Fold Change of disaccaride3 (GC): −0.9977
Fold Change of ergosterol (GC): 2.303
Fold Change of fucosterol (GC): −0.6553
Fold Change of glutamine (GC): −0.9116
Fold Change of glycanopyrose (GC): −0.958
Fold Change of glycerol (GC): −0.815
Fold Change of glycine (GC): 0.8807
Fold Change of hexadecanoic acid (GC): −0.2427
Fold Change of iso citric acid (GC): −0.6183
Fold Change of isoleucine (GC): −0.9533
Fold Change of lanosterol (GC): −1
Fold Change of leucine (GC): −0.9443
Fold Change of lysine (GC): −0.3925
Fold Change of malic acid (GC): −0.963
Fold Change of mevalonic acid lactone (GC): −0.1276
Fold Change of octadecanoic acid (GC): 0.21
Fold Change of oleic acid (GC): −0.4593
Fold Change of ornithine2 (GC): −1
Fold Change of ornithine3 (GC): −0.9853
Fold Change of palmiteliadic acid (GC): 0.515
Fold Change of phenylalanine (GC): −0.9797
Fold Change of phosphate (GC): −0.007333
Fold Change of pyrimidine (GC): −0.185
Fold Change of squalene (GC): −0.5745
Fold Change of tetradecanoic acid (GC): 0.07967
Fold Change of threonine2 (GC): −0.8553
Fold Change of threonine3 (GC): −0.8933
Fold Change of tms glutamine3 (GC): −0.8935
Fold Change of tms lysine4 (GC): −0.9783
Fold Change of tms tyrosine2 (GC): −0.3593
Fold Change of tms tyrosine3 (GC): −0.9473
Fold Change of valine (GC): −0.8673
Fold Change of abscisic acid (LC): 0
Fold Change of adenosine (LC): 0
Fold Change of glutamine/lysine (LC): 0.3981
Fold Change of guanosine (LC): 0.7598
Fold Change of riboflavin (LC): 0
Fold Change of serine (LC): 0.2011
Fold Change of tyrosine (LC): 0.2347
# Compounds perturbed (P < 0.05): 16
# Compounds perturbed (P < 0.1): 21
Fold Change of 2-ketobutyric acid (nLC): −0.9992
Fold Change of 2-ketoglutaric (nLC): 8.791
Fold Change of 3-indolylacetonitri (nLC): −0.9998
Fold Change of 4-methylcatechol (nLC): 0
Fold Change of 4aminobutyrate/dimg (nLC): −0.1983
Fold Change of 5hydroxyLtryptophan (nLC): 0
Fold Change of 6-benzylaminopurine (nLC): 0
Fold Change of DLaminoadipic acid (nLC): 1.411
Fold Change of NacetylDglucosamine (nLC): 0
Fold Change of NacetylLglutamate (nLC): −0.1078
Fold Change of NacetylLornithine (nLC): 0
Fold Change of abscisic acid (nLC): 0
Fold Change of aconitic acid (nLC): 0.5426
Fold Change of adenine (nLC): 0
Fold Change of adenosine (nLC): 0
Fold Change of alanine (nLC): 0.1599
Fold Change of allantoic acid (nLC): −0.1456
Fold Change of allantoin (nLC): 3.97
Fold Change of anthranilic acid (nLC): 0
Fold Change of arginine (nLC): −0.4885
Fold Change of argininosuccinate (nLC): 0
Fold Change of asparagine (nLC): 0.1511
Fold Change of aspartic (nLC): 0.2407
Fold Change of benzoic acid (nLC): 0
Fold Change of biotin (nLC): 1.077
Fold Change of caffeic acid (nLC): −0.5882
Fold Change of catechol (nLC): 0
Fold Change of cinnamic acid (nLC): 0
Fold Change of citricanoic/itaconi (nLC): 0
Fold Change of citrulline (nLC): 1659
Fold Change of coumaric acid (nLC): 0
Fold Change of cytidine (nLC): −0.9986
Fold Change of cytosine (nLC): 0
Fold Change of decanoic acid (nLC): −0.08716
Fold Change of diaminopimelic acid (nLC): 0
Fold Change of dihydrofolic acid (nLC): 0
Fold Change of estrone (nLC): 0
Fold Change of farnesol (nLC): 0
Fold Change of folic acid (nLC): 0
Fold Change of fumaric/3m2oxobutan (nLC): 0.4423
Fold Change of gallic acid (nLC): 0.1622
Fold Change of gibberellic (nLC): 0
Fold Change of giutamine/lysine (nLC): 0.07919
Fold Change of glucosamine6PO4 (nLC): −0.9951
Fold Change of glutamic/acetylseri (nLC): 0.1414
Fold Change of guanine (nLC): 0
Fold Change of guanosine (nLC): 1.131
Fold Change of histidine (nLC): 0
Fold Change of homogentisic/uric (nLC): 0
Fold Change of hydrocortisone (nLC): 0
Fold Change of hypoxanthine (nLC): 0.1655
Fold Change of indole3pyruvic acid (nLC): 0
Fold Change of inostol/glucos/sorb (nLC): −0.5905
Fold Change of isocitric/citric/qu (nLC): 2.549
Fold Change of jasmonic acid (nLC): 0
Fold Change of kinetin (nLC): 0
Fold Change of lactic acid (nLC): −0.02583
Fold Change of lauric acid (nLC): 0.1225
Fold Change of leucine/isoleucine/ (nLC): 0.1319
Fold Change of luteolin (nLC): 0
Fold Change of malic acid (nLC): 0.6212
Fold Change of malonic acid (nLC): 0
Fold Change of menthol* (nLC): −0.07013
Fold Change of methionine (nLC): 0
Fold Change of nopaline (nLC): 0.3342
Fold Change of oleic acid (nLC): 0.689
Fold Change of ornithine (nLC): 2.534
Fold Change of orotic acid (nLC): 8380
Fold Change of palmitic acid (nLC): 0.3979
Fold Change of phenylalanine (nLC): −0.1906
Fold Change of phenylpyruvic acid (nLC): 0
Fold Change of phosphoenolpyruvate (nLC): 0
Fold Change of pinitol (nLC): 0
Fold Change of pipecolic acid (nLC): 0.08112
Fold Change of porphobilinogen (nLC): 0
Fold Change of proline (nLC): 0.4603
Fold Change of pyridoxine (nLC): −0.1294
Fold Change of retinoic acid (nLC): 0
Fold Change of salicylic/HObenzoic (nLC): 0
Fold Change of selenoOLmethionine (nLC): 0.8515
Fold Change of serine (nLC): 0.1091
Fold Change of shikimic acid (nLC): 0
Fold Change of sinapinic acid (nLC): 0
Fold Change of sorbitol/mannitol (nLC): 0.2162
Fold Change of succinic (nLC): 0.8663
Fold Change of sucrose (nLC): 0.4493
Fold Change of sugar-phosphate (nLC): −0.1067
Fold Change of tetradecanoic acid (nLC): −0.07723
Fold Change of threonine/homoserin (nLC): 0.1267
Fold Change of thymine (nLC): 0
Fold Change of tryptophan (nLC): 1.142
Fold Change of tyrosine (nLC): 0.0982
Fold Change of uracil (nLC): 1.511
Fold Change of uridine (nLC): 0.1126
Fold Change of urocanic acid (nLC): 0
Fold Change of valine (nLC): 0.1624
Fold Change of xanthosineDiH2O (nLC): 0
Fold Change of zeatin (nLC): 0
Fold Change of 4-aminobenzoic acid (pLC): 0
Fold Change of 4-methylcatechol (pLC): 0
Fold Change of 4ambutyrate/dimglyc (pLC): 0.01279
Fold Change of 5hydroxyLtryptophan (pLC): 0
Fold Change of 6benzylaminopurine (pLC): 0
Fold Change of DL-aminoadipic acid (pLC): 0.4703
Fold Change of NacetylDglucosamine (pLC): 0
Fold Change of NacetylLglutamate (pLC): 0
Fold Change of NacetylLornithine (pLC): 1.319
Fold Change of adenine (pLC): 0.1153
Fold Change of alanine/sarcosine (pLC): 0.2602
Fold Change of allantoic acid (pLC): 0
Fold Change of anthranilic acid (pLC): 0
Fold Change of arginine (pLC): 0.4662
Fold Change of argininosuccinate (pLC): 0
Fold Change of asparagine (pLC): 0.6344
Fold Change of aspartic acid (pLC): 0.3594
Fold Change of biotin (pLC): 0
Fold Change of caffeine (pLC): 0
Fold Change of citric acid TME (pLC): 0
Fold Change of citrulline (pLC): 1.798
Fold Change of cytidine (pLC): 0
Fold Change of cytosine (pLC): 0
Fold Change of diaminopimelic acid (pLC): 0
Fold Change of dihydrofolic acid (pLC): 0
Fold Change of dipicolinic acid (pLC): 0
Fold Change of folic acid (pLC): 0
Fold Change of glucosamine (pLC): 0
Fold Change of glucosamine6PO4 (pLC): 0
Fold Change of glutamate (pLC): 0.4341
Fold Change of glutathione (pLC): −0.03348
Fold Change of histidine (pLC): 0
Fold Change of hydrocortisone (pLC): 0
Fold Change of hypoxanthine (pLC): 0.2057
Fold Change of itaconic acid dimes (pLC): 0
Fold Change of kinetin (pLC): 0
Fold Change of leucine/isoleucine/ (pLC): 0.2746
Fold Change of luteolin (pLC): 0
Fold Change of mannitol (pLC): 0.4543
Fold Change of methionine (pLC): 0.3299
Fold Change of mevalonic lactone (pLC): −0.4606
Fold Change of niacinamide (pLC): 0
Fold Change of nicotinic acid (pLC): −0.9989
Fold Change of nopaline (pLC): 0
Fold Change of ornithine (pLC): 0.5049
Fold Change of phenylalanine (pLC): 0.4036
Fold Change of phosphoenolpyruvate (pLC): 0
Fold Change of pipecolic acid (pLC): 0.5237
Fold Change of progesterone (pLC): 0
Fold Change of proline (pLC): 0.6707
Fold Change of pyridoxine (pLC): −0.1684
Fold Change of selenoDLmethionine (pLC): 1.178
Fold Change of sugar-phosphate (pLC): 0
Fold Change of thiamine (pLC): 0
Fold Change of threonine/homoserin (pLC): 0.3145
Fold Change of thymine (pLC): 0
Fold Change of tryptophan (pLC): 0
Fold Change of uric acid (pLC): 308
Fold Change of urocanic acid (pLC): 0
Fold Change of xanthosine(diH2O) (pLC): 0
Fold Change of zeatin (pLC): 0
